Measured values published in US8309581B2, “Benzimidazole derivatives” (Hoffmann-La Roche Inc., priority 2009, dated 2012).

The compounds below were run against T1, FXR ligand binding domain (Homo sapiens, UniProt Q96RI1) (assay: Radioligand Binding Assay (scintillation proximity radioligand displacement)). Conditions: GST-FXR LBD fusion protein on SPA beads, test compound 6×10^−9 M to 2.5×10^−5 M.
T1 construct: made in house; host or cells: E. coli BL21 (pLysS)
T1 sequence (Q96RI1 193-472 isoform Q96RI1-2): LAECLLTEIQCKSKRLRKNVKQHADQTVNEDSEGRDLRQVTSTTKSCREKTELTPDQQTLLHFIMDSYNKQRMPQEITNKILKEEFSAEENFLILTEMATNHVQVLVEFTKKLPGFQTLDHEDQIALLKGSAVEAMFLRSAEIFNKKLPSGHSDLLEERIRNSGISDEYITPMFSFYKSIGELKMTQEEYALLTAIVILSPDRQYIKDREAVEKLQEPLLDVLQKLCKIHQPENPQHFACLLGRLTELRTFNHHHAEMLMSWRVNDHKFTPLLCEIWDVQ
Method in brief: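 GST-fused human FXR LBD (aa 193-473, E. coli-expressed, 40 nM) was bound to glutathione SPA beads in 50 mM Hepes pH 7.4, 10 mM NaCl, 5 mM MgCl2, 0.01% CHAPS. Displacement of radioligand (e.g. 20 nM) was measured over 6×10^−9 to 2.5×10^−5 M compound, and IC50 calculated.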

| SMILES | IC50 |
| --- | --- |
| FC1(F)CCC(Cn2c(-c3ccccc3CCc3ccc(-c4nnn[nH]4)cc3)nc3ccccc32)CC1 [Example 81, 1-(4,4-Difluoro-cyclohexylmethyl)-2-(2-{2-[4-(1H-tetrazol-5-yl)-phenyl]-ethyl}-phenyl)-1H-benzoimidazole] | 40 nM |
| CC1CCC(Cn2c(-c3ccccc3CCc3ccc(-c4nnn[nH]4)cc3)nc3ccccc32)CC1 (stereo not shown) [Example 82, 1-(4-Methyl-cyclohexylmethyl)-2-(2-{2-[4-(1H-tetrazol-5-yl)-phenyl]-ethyl}-phenyl)-1H-benzoimidazole] | 10 nM |
| c1ccc(-c2nc3ccccc3n2CCC2CCCCC2)c(CCc2ccc(-c3nnn[nH]3)cc2)c1 [Example 83, 1-(2-Cyclohexyl-ethyl)-2-(2-{2-[4-(1H-tetrazol-5-yl)-phenyl]-ethyl}-phenyl)-1H-benzoimidazole] | 10 nM |
| CCC(CC)COc1cc(Cl)ccc1-c1nc2cc(F)c(F)cc2n1Cc1ccc(-c2nnn[nH]2)cc1F [Example 88, 2-[4-Chloro-2-(2-ethyl-butoxy)-phenyl]-5,6-difluoro-1-[2-fluoro-4-(1H-tetrazol-5-yl)-benzyl]-1H-benzoimidazole] | 10 nM |
| Fc1cc2nc(-c3ccc(Cl)cc3OCC3CC3)n(Cc3ccc(-c4nnn[nH]4)cc3F)c2cc1F [Example 89, 2-(4-Chloro-2-cyclopropylmethoxy-phenyl)-5,6-difluoro-1-[2-fluoro-4-(1H-tetrazol-5-yl)-benzyl]-1H-benzoimidazole] | 60 nM |
| Fc1cc2nc(-c3ccc(Cl)cc3OCC3CCOCC3)n(Cc3ccc(-c4nnn[nH]4)cc3F)c2cc1F [Example 90, 2-[4-Chloro-2-(tetrahydro-pyran-4-ylmethoxy)-phenyl]-5,6-difluoro-1-[2-fluoro-4-(1H-tetrazol-5-yl)-benzyl]-1H-benzoimidazole] | 1600 nM |
| CCCOc1cc(Cl)ccc1-c1nc2cc(F)c(F)cc2n1Cc1ccc(-c2nnn[nH]2)cc1F [Example 91, 2-(4-Chloro-2-propoxy-phenyl)-5,6-difluoro-1-[2-fluoro-4-(1H-tetrazol-5-yl)-benzyl]-1H-benzoimidazole] | 50 nM |
| Fc1cc2nc(-c3ccccc3OCC3CCCC3)n(Cc3ccc(-c4nnn[nH]4)cc3F)c2cc1F [Example 94, 2-(2-Cyclopentylmethoxy-phenyl)-5,6-difluoro-1-[2-fluoro-4-(1H-tetrazol-5-yl)-benzyl]-1H-benzoimidazole] | 40 nM |
| Fc1cc(-c2nnn[nH]2)ccc1Cn1c(-c2ccc(Cl)cc2OCC2CCCC2)nc2ccccc21 [Example 95, 2-(4-Chloro-2-cyclopentylmethoxy-phenyl)-1-[2-fluoro-4-(1H-tetrazol-5-yl)-benzyl]-1H-benzoimidazole] | 10 nM |

Further lines, results first:

| IC50 | SMILES |
| --- | --- |
| 0.2 nM | O=C(Nc1cc(Cl)ccc1-c1nc2cc(F)c(F)cc2n1CC1CCCCC1)c1ccc(-c2nnn[nH]2)cc1F [Example 84, N-[5-Chloro-2-(1-cyclohexylmethyl-5,6-difluoro-1H-benzoimidazol-2-yl)-phenyl]-2-fluoro-4-(1H-tetrazol-5-yl)-benzamide] |
| 0.6 nM | O=C(Nc1cc(Cl)ccc1-c1nc2cc(F)c(F)cc2n1CC1CCCCC1)c1ccc(-c2nnn[nH]2)c(F)c1 [Example 85, N-[5-Chloro-2-(1-cyclohexylmethyl-5,6-difluoro-1H-benzoimidazol-2-yl)-phenyl]-3-fluoro-4-(1H-tetrazol-5-yl)-benzamide] |
| 3 nM | O=C(Nc1ccc(-c2nnn[nH]2)cc1F)c1ccccc1-c1nc2cc(F)c(F)cc2n1CC1CCCCC1 [Example 86, 2-(1-Cyclohexylmethyl-5,6-difluoro-1H-benzoimidazol-2-yl)-N-[2-fluoro-4-(1H-tetrazol-5-yl)-phenyl]-benzamide] |
| 20 nM | Fc1cc2nc(-c3ccc(Cl)cc3OCC3CCCCC3)n(Cc3ccc(-c4nnn[nH]4)cc3F)c2cc1F [Example 87, 2-(4-Chloro-2-cyclohexylmethoxy-phenyl)-5,6-difluoro-1-[2-fluoro-4-(1H-tetrazol-5-yl)-benzyl]-1H-benzoimidazole] |
| 20 nM | Fc1cc2nc(-c3ccc(Cl)cc3OCC3CCC3)n(Cc3ccc(-c4nnn[nH]4)cc3F)c2cc1F [Example 92, 2-(4-Chloro-2-cyclobutylmethoxy-phenyl)-5,6-difluoro-1-[2-fluoro-4-(1H-tetrazol-5-yl)-benzyl]-1H-benzoimidazole] |
| 60 nM | Fc1cc2nc(-c3ccc(Cl)cc3OCC3CCCCO3)n(Cc3ccc(-c4nnn[nH]4)cc3F)c2cc1F (stereo not shown) [Example 93, 2-[4-Chloro-2-(tetrahydro-pyran-2-ylmethoxy)-phenyl]-5,6-difluoro-1-[2-fluoro-4-(1H-tetrazol-5-yl)-benzyl]-1H-benzoimidazole] |
| 20 nM | Fc1cc2nc(-c3ccc(Cl)cc3OC3CCCCC3)n(Cc3ccc(-c4nnn[nH]4)cc3F)c2cc1F [Example 96, 2-(4-Chloro-2-cyclohexyloxy-phenyl)-5,6-difluoro-1-[2-fluoro-4-(1H-tetrazol-5-yl)-benzyl]-1H-benzoimidazole] |
